Our source for the MIC values is patent US7332476B2, “Pyridyl substituted ketolide antibiotics” (Novartis AG, priority 2003, dated 2008).

Values after ≈ are worked out from the molar mass of the structure shown.

Holding throughout (assay): MIC, broth microdilution (NCCLS)
A general note: In broth dilution the organism is exposed to a series of concentrations in liquid medium.

Test [1] has as its system Streptococcus pneumoniae Stpn_Mef S 3427. Type of test: cell-based. Particulars: Table 7, Strain ID L (Table 6): S. pneumoniae Stpn_Mef S 3427. On the procedure: (§1) Strains. The bacterial isolates listed in Table 4 were cultivated from −70° C. frozen stocks by two consecutive overnight passages (P1, P2) at 35° C. on 5% blood agar (Remel, Lenexa, Kans.). Chocolate agar (Remel) is used for Haemophilus influenzae. H. influenzae and Streptococcus pneumoniae are incubated in 5-10% CO2
(§2) Drug Stock Preparation. To determine the amount of solvent to be used to give the desired final concentration, the formula “weight obtained in mg/final concentration in mg/ml” will be used. It will give the amount of solvent in ml needed to be added to give the desired concentration. For example, if 2.5 mg/ml is the desired concentration and the weight of compound is 13.7 mg, then the amount of solvent to be added is […]. Methanol is used as the solvent to dissolve the test compounds. Further dilution of stock is done in sterile, deionized water. Drug stocks are kept frozen at −70° C., protected from light.
(§3) Susceptibility Testing. MICs are determined by the broth microdilution method in accordance with the NCCLS guidelines. In brief, organism suspensions are adjusted to a 0.5 McFarland standard to yield a final inoculum between 3×10^5 and 7×10^5 CFU/ml. Drug dilutions and inocula are made in sterile, cation adjusted Mueller-Hinton Broth (CAMHB) (Remel) for all but S. pneumoniae [CAMHB with 2-5% lysed horse blood (Remel)] and H. influenzae [Haemophilus Test Medium (Remel)]. An inoculum volume of 100 μl is added to wells containing 100 μl of broth with 2-fold serial dilutions of drug. All inoculated microdilution trays are incubated in ambient air at 35° C. for 18-24 hours, except for S. pneumoniae, and H. influenzae (both at 5-10% CO2).
(§4) Following appropriate incubation, the MIC is determined and the MIC is defined as the lowest concentration of the drug that prevented visible growth.
(§5) Strains. The bacterial isolates listed in Table 8 were cultivated from −70° C. frozen stocks by two consecutive overnight passages (P1, P2) at 35° C. on 5% blood agar (Remel, Lenexa, Kans.). Chocolate agar (Remel) is used for Haemophilus influenzae. H. influenzae and Streptococcus pneumoniae are incubated in 5-10% CO2
(§6) Following appropriate incubation, the MIC is determined and the MIC is defined as the lowest concentration of the drug that prevented visible growth. […] Antibacterial activity of representative compounds of the invention were compared against telitromycin.

The test system of test [2] is Staphylococcus epidermidis Step_f50654. The test is classed as cell-based. The conditions noted are these: Table 7, Strain ID C (Table 6): S. epidermidis Step_f50654; in µg/mL (unit assumed). On the procedure:
as §1, §2, §3, §4, §5, §6

The subject of test [3] is Streptococcus pneumoniae Stpn_Erm S 4297. Type of test: cell-based. The conditions noted are these: Table 7, Strain ID J (Table 6): S. pneumoniae Stpn_Erm S 4297. The procedure:
as §1, §2, §3, §4, §5, §6

In test [4] the test system is Haemophilus influenzae Hain_49247. Type of test: cell-based. Particulars: Table 7, Strain ID M (Table 6): H. influenzae Hain_49247; unit assumed. The procedure:
as §1, §2, §3, §4, §5, §6

Test [5] has as its system Staphylococcus aureus Stau_29213. Type of test: cell-based. Particulars: Table 7, Strain ID A (Table 6): S. aureus Stau_29213; in µg/mL (unit assumed). The procedure:
as §1, §2, §3, §4, §5, §6

In test [6] the test system is Staphylococcus epidermidis Step_14990. Type of test: cell-based. Particulars: Table 7, Strain ID B (Table 6): S. epidermidis Step_14990; in µg/mL (unit assumed). The procedure:
as §1, §2, §3, §4, §5, §6

Test [7] deals with Enterococcus faecalis Enfa_29212. The test is classed as cell-based. The conditions noted are these: Table 7, Strain ID D (Table 6): E. faecalis Enfa_29212; in µg/mL (unit assumed). On the procedure:
as §1, §2, §3, §4, §5, §6

For test [8], the system named is Streptococcus pneumoniae Stpn_Mef 5654. The test is classed as cell-based. The conditions noted are these: Table 7, Strain ID K (Table 6): S. pneumoniae Stpn_Mef 5654; in µg/mL (unit assumed). On the procedure:
as §1, §2, §3, §4, §5, §6

In test [9] the test system is Streptococcus pneumoniae Stpn_280-962. Type of test: cell-based. Particulars: Table 7, Strain ID H (Table 6): S. pneumoniae Stpn_280-962. On the procedure: as §1, §2, §3, §4, §5, §6
For test [10], the system named is Streptococcus pneumoniae Stpn_49619. Type of test: cell-based. Particulars: Table 7, Strain ID F (Table 6): S. pneumoniae Stpn_49619. On the procedure: as §1, §2, §3, §4, §5, §6
Test [11] deals with Streptococcus pneumoniae Stpn_297-749. Type of test: cell-based. The conditions noted are these: Table 7, Strain ID G (Table 6): S. pneumoniae Stpn_297-749. The procedure:
as §1, §2, §3, §4, §5, §6

Test [12] concerns Streptococcus pyogenes Stpy_8668. The test is classed as cell-based. The conditions noted are these: Table 7, Strain ID E (Table 6): S. pyogenes Stpy_8668. The procedure:
as §1, §2, §3, §4, §5, §6

In test [13] the test system is S. pneumoniae Stpn_Erm 6849. The test is classed as cell-based, Streptococcus pneumoniae. The conditions noted are these: Table 7, Strain ID I (Table 6): S. pneumoniae Stpn_Erm 6849. The procedure: as §1, §2, §3, §4

On to `C/C=C/[C@]12OC(=O)N(CCCCn3cnc(-c4cccnc4)c3)[C@@H]1[C@@H](C)C(=O)[C@H](C)C[C@](C)(OC)[C@H](OC1O[C@H](C)C[C@H](N(C)C)[C@H]1O)[C@@H](C)C(=O)[C@@H](C)C(=O)O[C@@H]2CC` (stereo partly drawn) [65 (2), (3aS,4R,7R,9R,10R,11S,13R,15R,15aR)-4-ETHYL-11-METHOXY-7,9,11,13,15-PENTAMETHYL-2,6,8,14-TETRAOXO-3a-[(1E)-PROP-1-ENYL]-1-[4-(4-PYRIDIN-3-YL-1H-IMIDAZOL-1-YL)BUTYL]TETRADECAHYDRO-1H-OXACYCLOTETRADECINO[4,3-D][1,3]OXAZOL-10-YL 3,4,6-TRIDEOXY-3-(DIMETHYLAMINO)-D-XYLO-HEXOPYRANOSIDE], for which the MIC in test [1] (in µg/mL (unit assumed)) worked out at 0.2; in [2] it was 3.13; in test [3] (unit assumed), 0.4 µg/mL (≈ 0.477 µM); in test [4] it was 25 µg/mL (≈ 29.8 µM); in test [5], 3.13; in test [6] it was 3.13. In addition, the MIC in [7] was 0.78; in [8], 0.78; in [9], “=0.05”; in test [10] it was “=0.05”; in test [11] it was “=0.05”; in test [12] (unit assumed), 0.2 µg/mL (≈ 0.239 µM). For the same compound, in test [13] (unit assumed), the MIC is 0.78 µg/mL (≈ 0.931 µM).
Consider `CCC1OC(=O)C(C)C(=O)C(C)C(OC2OC(C)CC(N(C)C)C2O)C(C)(OC)CC(C)C(=O)C(C)C2C1OC(=O)N2CCCCc1ncc(-c2ccc(F)cc2F)s1` (stereo not drawn) [Compound 20u], for which the MIC came out at 0.2 in test [1] (in µg/mL (unit assumed)); 0.4 in test [2]; 12.5 µg/mL (≈ 14.7 µM) in test [3] (unit assumed); 25 µg/mL (≈ 29.4 µM) in test [4]; 0.78 in test [5]; 0.78 in [6]. For the same compound, the MIC in test [7] was 0.4; in test [8], 1.56; in test [9] (unit assumed), 0.1 µg/mL (≈ 0.118 µM); in test [10] (unit assumed), 0.1 µg/mL (≈ 0.118 µM); in test [11] (unit assumed), 0.1 µg/mL (≈ 0.118 µM); in test [12] (unit assumed), 0.4 µg/mL (≈ 0.471 µM). This compound also displayed an MIC in test [13] (unit assumed) of 25 µg/mL (≈ 29.4 µM).
Take `CC[C@H]1OC(=O)[C@H](C)C(=O)[C@H](C)[C@@H](OC2O[C@H](C)C[C@H](N(C)C)[C@H]2O)[C@@](C)(OC)C[C@@H](C)C(=O)[C@H](C)[C@H]2N(CCCCc3ncc(-c4cccc(N)c4)s3)C(=O)O[C@]12CC` (stereo partly drawn) [Example 34, (3aS,4R,7R,9R,10R,11S,13R,15R,15aR)-1-{4-[5-(3-AMINOPHENYL)-1,3-THIAZOL-2-YL]BUTYL}-3a,4-DIETHYL-11-METHOXY-7,9,11,13,15-PENTAMETHYL-2,6,8,14-TETRAOXOTETRADECAHYDRO-1H-OXACYCLOTETRADECINO[4,3-D][1,3]OXAZOL-10-YL 3,4,6-TRIDEOXY-3-(DIMETHYLAMINO)-D-XYLO-HEXOPYRANOSIDE]: the MIC result in [9], in test [11], in [12] and in [13] was “=0.05” each time.
`CC[C@H]1OC(=O)[C@@](C)(F)C(=O)[C@H](C)[C@@H](OC2O[C@H](C)C[C@H](N(C)C)[C@H]2O)[C@@](C)(OC)C[C@@H](C)C(=O)[C@H](C)[C@H]2N(CCCCc3ccc4ccccc4n3)C(=O)O[C@]12CC` (stereo partly drawn) [65 (1), (3aS,4R,7S,9R,10R,11S,13R,15R,15aR)-3a,4-DIETHYL-7-FLUORO-11-METHOXY-7,9,11,13,15-PENTAMETHYL-2,6,8,14-TETRAOXO-1-(4-QUINOLIN-2-YLBUTYL)TETRADECAHYDRO-2H-OXACYCLOTETRADECINO[4,3-D][1,3]OXAZOL-10-YL-3,4,6-TRIDEOXY-3-(DIMETHYLAMINO)-D-XYLO-HEXOPYRANOSIDE]: the MIC result in [1] was “=0.05”; in test [2] it was 0.2; in [3], “=0.05”; in [4], 3.13 µg/mL (≈ 3.78 µM); in [5] it was 0.2; in [6] it was 0.2. Also, the MIC is reported as 0.1 in [7], 0.2 in test [8], “=0.05” in test [12] and “=0.05” in [13].
With `CC[C@H]1OC(=O)[C@H](C)C(=O)[C@H](C)[C@@H](OC2O[C@H](C)C[C@H](N(C)C)[C@H]2O)[C@@](C)(OC)C[C@@H](C)C(=O)[C@H](C)[C@H]2N(CCCCn3cc(-c4cccnc4)nc3C)C(=O)O[C@]12CC` (stereo partly drawn) [Example 20, (3aS,4R,7R,9R,10R,11S,13R,15R,15aR)-3a,4-diethyl-11-methoxy-7,9,11,13,15-pentamethyl-1-[4-(2-methyl-4-pyridin-3-yl-1H-imidazol-1-yl)butyl]-2,6,8,14-tetraoxotetradecahydro-2H-oxacyclotetradecino[4,3-d][1,3]oxazol-10-yl-3,4,6-trideoxy-3-(dimethylamino)-D-xylo-hexopyranoside], the MIC entry in test [1], in [3], in test [9], in test [10], in [11] and in [12] was “=0.05” throughout. Also, in [13], the MIC entry is given as “=0.5”.
As for `CC[C@H]1OC(=O)[C@H](C)C(=O)[C@H](C)[C@@H](OC2O[C@H](C)C[C@H](N(C)C)[C@H]2O)[C@@](C)(OC)C[C@@H](C)C(=O)[C@H](C)[C@H]2N(CCCOc3cccc(-c4cccnc4)c3)C(=O)O[C@]12CC` (stereo partly drawn) [Example 35, (3aS,4R,7R,9R,10R,11S,13R,15R,15aR)-3a,4-diethyl-11-methoxy-7,9,11,13,15-pentamethyl-2,6,8,14-tetraoxo-1-[3-(3-pyridin-3-ylphenoxy)propyl]tetradecahydro-1H-oxacyclotetradecino[4,3-d][1,3]oxazol-10-yl-3,4,6-trideoxy-3-(dimethylamino)-D-xylo-hexopyranoside], the MIC result in test [9], in [11] and in test [13] was “=0.05” each time.
Turning to `CC[C@H]1OC(=O)[C@H](C)C(=O)[C@H](C)[C@@H](OC2O[C@H](C)C[C@H](N(C)C)[C@H]2O)[C@@](C)(OC)C[C@@H](C)C(=O)[C@H](C)[C@H]2N(CCCCn3cnc(-c4ccc(F)nc4)c3)C(=O)O[C@]12CC` (stereo partly drawn) [Example 33, (3aS,4R,7R,9R,10R,11S,13R,15R,15aR)-3a,4-DIETHYL-1-14-[4-(6-FLUOROPYRIDIN-3-YL)-1H-IMIDAZOL-1-YL]BUTYL}-11-METHOXY-7,9,11,13,15-PENTAMETHYL-2,6,8,14-TETRAOXOTETRADECAHYDRO-1H-OXACYCLOTETRADECINO[4,3-D][1,3]OXAZOL-10-YL-3,4,6-TRIDEOXY-3-(DIMETHYLAMINO)-D-XYLO-HEXOPYRANOSIDE], the MIC entry in test [9], in test [11], in test [12] and in test [13] was “=0.05” in each case.
